This note sets out measurements from patent US20080175900A1, “PHARMACEUTICAL FORMULATIONS OF AN ANHYDRATE CRYSTAL FORM OF 2-(3-FLUORO-4-HYDROXYPHENYL)-7-VINYL-1,3-BENZOXAZOL-5-OL” (WYETH, priority 2006, published 2008).

Molecules are shown by their SMILES.

This data set in a line: Conversion of the crystal form when suspended and stirred in a solvent at room temperature. The data set is classed as physicochemical. The text has this: The anhydrate crystal form (Form B) can be converted to other crystal forms under suitable conditions. […] 6, 2006).

With `C=Cc1cc(O)cc2nc(-c3ccc(O)c(F)c3)oc12` [Form B, 2-(3-fluoro-4-hydroxyphenyl)-7-vinyl-1,3-benzoxazol-5-ol], the “crystal form obtained after suspending and stirring in ethanol” value (suspended and stirred in ethanol at room temperature for three days) is given as “another anhydrate crystal form is obtained”. Also, the “crystal form obtained after suspending and stirring in methanol” value (suspended and stirred in methanol at room temperature for one day) was “another anhydrate crystal form is obtained”. In addition, the “crystal form obtained after suspending and stirring in water” value (suspended and stirred in water at room temperature for three days) is reported as “a hydrate crystal form is obtained”.
